According to patent publication US20230017045A1, “PYRIDINE AND PYRIMIDINE CARBOXYLATE HERBICIDES AND METHODS OF USE THEREOF” (Dow AgroSciences LLC, priority 2017, published 2023):
Where two headings read alike, the source gives them in different places.

Test system: test plant species
Assay: Post-emergent herbicidal activity test (greenhouse, foliar spray, visual growth reduction)
Type: in vivo
Conditions: post-emergence, 336 h, 140 g ai/ha
How it was run: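 Scoring used a 0 to 100 percent visual scale of growth reduction against solvent-treated controls, read 14 d after spraying. Applications went onto plants at first or second true leaf stage, 187 L/ha, with crop oil concentrate and X-77 surfactant in the carrier. Post-treatment watering was by subirrigation to avoid wash-off.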

[1] = ALOMY: blackgrass (Alopecurus myosuroides), 14 days after application, read-out: Visual Growth Reduction (%) 14 Days After Application, ALOMY
[2] = AMARE: redroot pigweed (Amaranthus retroflexus), 14 days after application, read-out: Visual Growth Reduction (%) 14 Days After Application, AMARE
[3] = AVEFA: wild oat (Avena fatua), 14 days after application, read-out: Visual Growth Reduction (%) 14 Days After Application, AVEFA
[4] = CHEAL: lambsquarters (Chenopodium album), 14 days after application, read-out: Visual Growth Reduction (%) 14 Days After Application, CHEAL
[5] = CIRAR: canada thistle (Cirsium arvense), 14 days after application, read-out: Visual Growth Reduction (%) 14 Days After Application, CIRAR
[6] = CYPES: yellow nutsedge (Cyperus esculentus), 14 days after application, read-out: Visual Growth Reduction (%) 14 Days After Application, CYPES
[7] = DIGSA: crabgrass (Digitaria sanguinalis), 14 days after application, read-out: Visual Growth Reduction (%) 14 Days After Application, DIGSA
[8] = barnyardgrass (Echinochloa crus-galli), 14 Days After Application, read-out: Visual Growth Reduction (%) ECHCG
[9] = common chickweed (Stellaria media), 14 Days After Application, read-out: Visual Growth Reduction (%) STEME
[10] = giant foxtail (Setaria faberi), 14 Days After Application, read-out: Visual Growth Reduction (%) SETFA
[11] = ivy-leaf morning glory (Ipomoea hederacea), 14 Days After Application, read-out: Visual Growth Reduction (%) IPOHE
[12] = johnsongrass (Sorghum vulgare), 14 Days After Application, read-out: Visual Growth Reduction (%) SORVU
[13] = kochia (Bassia scoparia), 14 Days After Application, read-out: Visual Growth Reduction (%) KCHSC
[14] = rice (Oryza sativa), 14 Days After Application, read-out: Visual Growth Reduction (%) ORYSA
[15] = wheat, spring (Triticum aestivum), 14 Days After Application, read-out: Visual Growth Reduction (%) TRZAS
[16] = ECHCG: barnyardgrass (Echinochloa crus-galli), 14 days after application, read-out: Visual Growth Reduction (%) 14 Days After Application, ECHCG
[17] = IPOHE: ivy-leaf morning glory (Ipomoea hederacea), 14 days after application, read-out: Visual Growth Reduction (%) 14 Days After Application, IPOHE
[18] = KCHSC: kochia (Bassia scoparia), 14 days after application, read-out: Visual Growth Reduction (%) 14 Days After Application, KCHSC
[19] = ORYSA: rice (Oryza sativa), 14 days after application, read-out: Visual Growth Reduction (%) 14 Days After Application, ORYSA
[20] = SETFA: giant foxtail (Setaria faberi), 14 days after application, read-out: Visual Growth Reduction (%) 14 Days After Application, SETFA
[21] = SORVU: grain sorghum (Sorghum vulgare), 14 days after application, read-out: Visual Growth Reduction (%) 14 Days After Application, SORVU
[22] = STEME: common chickweed (Stellaria media), 14 days after application, read-out: Visual Growth Reduction (%) 14 Days After Application, STEME
[23] = TRZAS: wheat, spring (Triticum aestivum), 14 days after application, read-out: Visual Growth Reduction (%) 14 Days After Application, TRZAS

SMILES	pest or weed control at 140 g/ha [1]	pest or weed control at 140 g/ha [2]	pest or weed control at 140 g/ha [3]	pest or weed control at 140 g/ha [4]	pest or weed control at 140 g/ha [5]	pest or weed control at 140 g/ha [6]	pest or weed control at 140 g/ha [7]	pest or weed control at 140 g/ha [8]	pest or weed control at 140 g/ha [9]	pest or weed control at 140 g/ha [10]	pest or weed control at 140 g/ha [11]	pest or weed control at 140 g/ha [12]	pest or weed control at 140 g/ha [13]	pest or weed control at 140 g/ha [14]	pest or weed control at 140 g/ha [15]	pest or weed control at 140 g/ha [16]	pest or weed control at 140 g/ha [17]	pest or weed control at 140 g/ha [18]	pest or weed control at 140 g/ha [19]	pest or weed control at 140 g/ha [20]	also measured
COC(=O)c1nc(-c2ccc(C(F)(F)F)cc2Cl)ccc1C#N [F10, Methyl 6-(2-chloro-4-(trifluoromethyl)phenyl)-3-cyanopicolinate]	0 to 29%	30 to 44%	0 to 29%	45 to 59%	30 to 44%	45 to 59%	45 to 59%	0 to 29%	0 to 29%	0 to 29%	60 to 74%	30 to 44%	0 to 29%	0 to 29%	0 to 29%	–	–	–	–	–	–
COC(=O)c1nc(-c2ccc(C(F)(F)F)c(S(C)(=O)=O)c2Cl)ccc1Cl [F139, methyl 3-chloro-6-(2-chloro-3-(methylsulfonyl)-4-(trifluoromethyl)phenyl)picolinate]	0 to 29%	0 to 29%	0 to 29%	0 to 29%	0 to 29%	30 to 44%	0 to 29%	–	–	–	–	–	–	–	–	0 to 29%	0 to 29%	0 to 29%	0 to 29%	0 to 29%	pest or weed control at 140 g/ha [21]: 0 to 29%; pest or weed control at 140 g/ha [22]: 0 to 29%; pest or weed control at 140 g/ha [23]: 0 to 29%
COC(=O)c1nc(-c2ccc(C(F)(F)F)cc2Cl)c(C#N)cc1Cl [F3, Methyl 3-chloro-6-(2-chloro-4-(trifluoromethyl)phenyl)-5-cyanopicolinate]	0 to 29%	0 to 29%	0 to 29%	75 to 84%	0 to 29%	0 to 29%	60 to 74%	0 to 29%	0 to 29%	0 to 29%	60 to 74%	0 to 29%	0 to 29%	0 to 29%	0 to 29%	–	–	–	–	–	–
COC(=O)c1nc(-c2ccc(C(F)(F)F)c(OC)c2)c(F)cc1Cl [F295, Methyl 3-chloro-5-fluoro-6-(3-methoxy-4-(trifluoromethyl)phenyl)picolinate]	–	–	–	–	–	–	–	–	–	–	–	–	–	–	–	0 to 29%	60 to 74%	0 to 29%	0 to 29%	0 to 29%	pest or weed control at 140 g/ha [21]: 0 to 29%; pest or weed control at 140 g/ha [22]: 0 to 29%; pest or weed control at 140 g/ha [23]: 0 to 29%; pest or weed control at 140 g/ha (blackgrass (Alopecurus myosuroides), 14 Days After Application, read-out: Visual Growth Reduction (%) ALOMY): 0 to 29%; pest or weed control at 140 g/ha (canada thistle (Cirsium arvense), 14 Days After Application, read-out: Visual Growth Reduction (%) CIRAR): 60 to 74%; pest or weed control at 140 g/ha (crabgrass (Digitaria sanguinalis), 14 Days After Application, read-out: Visual Growth Reduction (%) DIGSA): 45 to 59%; pest or weed control at 140 g/ha (lambsquarters (Chenopodium album), 14 Days After Application, read-out: Visual Growth Reduction (%) CHEAL): 30 to 44%; pest or weed control at 140 g/ha (redroot pigweed (Amaranthus retroflexus), 14 Days After Application, read-out: Visual Growth Reduction (%) AMARE): 0 to 29%; pest or weed control at 140 g/ha (wild oat (Avena fatua), 14 Days After Application, read-out: Visual Growth Reduction (%) AVEFA): 0 to 29%; pest or weed control at 140 g/ha (yellow nutsedge (Cyperus esculentus), 14 Days After Application, read-out: Visual Growth Reduction (%) CYPES): 75 to 84%
